Legend:
Assay type in all cases: in vivo
[1] = system: field corn (Zea mays L., var. Dekalb 535, CORN); assay: Pre-emerge greenhouse screening, crop safety (phytotoxicity rating); settings: 14 days after application
Outline: (§1)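 For foliar (post-emergence) testing, 2-3 leaf seedlings were sprayed with acetone solutions including 0.25% v/v non-ionic surfactant, rates 15–1000 g ai/ha, then bottom-watered. Soil-applied (pre-emergence) tests used pots sown one day before spraying. Ratings, 0–100, were made at 14 days.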

[2] = system: soybean (Glycine max L., var. Pella 86, SOY); assay: as above; settings: 14 days after application
Outline: as §1

[3] = system: upland rice (Oryza sp., var.Tebonnet, RICE); assay: as above; settings: 14 days after application
Outline: as §1

[4] = system: ivyleaf morningglory (Ipomoea hederacea, IPOHE); assay: Pre-emerge greenhouse herbicide activity screening, phytotoxicity rating; settings: 14 days after application
Outline: as §1

[5] = system: barnyardgrass (Echinochloa crus-galli, ECHCG); assay: as above; settings: 14 days after application
Outline: as §1

[6] = system: lambsquarters (Chenopodium album, CHEAL); assay: as above; settings: 14 days after application
Outline: as §1

[7] = system: velvetleaf (Abutilon theophrasti, ABUTH); assay: as above; settings: 14 days after application
Outline: as §1

[8] = system: sicklepod (Cassia obtusifolia, CASOB); assay: as above; settings: 14 days after application
Outline: as §1

[9] = system: green foxtail (Setaria viridis, SETVI); assay: as above; settings: 14 days after application
Outline: as §1

[10] = system: large crabgrass (Digitaria sanguinalis, DIGSA); assay: as above; settings: 14 days after application
Outline: as §1

[11] = system: johnsongrass (Sorghum halepense, SORHA); assay: as above; settings: 14 days after application
Outline: as §1

[12] = system: common ragweed (Ambrosia artemisiifolia L., AMBEL); assay: as above; settings: 14 days after application
Outline: as §1

[13] = system: redroot pigweed (Amaranthus retroflexus, AMARE); assay: as above; settings: 14 days after application
Outline: as §1

[14] = system: ivyleaf morningglory (Ipomoea hederacea, IPOHE); assay: Post-emerge greenhouse herbicide activity screening, phytotoxicity rating; settings: 14 days after application
Outline: as §1

[15] = system: barnyardgrass (Echinochloa crus-galli, ECHCG); assay: as above; settings: 14 days after application
Outline: as §1

[16] = system: lambsquarters (Chenopodium album, CHEAL); assay: as above
Outline: as §1

[17] = system: velvetleaf (Abutilon theophrasti, ABUTH); assay: as above; settings: 14 days after application
Outline: as §1

[18] = system: sicklepod (Cassia obtusifolia, CASOB); assay: as above
Outline: as §1

[19] = system: green foxtail (Setaria viridis, SETVI); assay: as above
Outline: as §1

[20] = system: large crabgrass (Digitaria sanguinalis, DIGSA); assay: as above; settings: 14 days after application
Outline: as §1

[21] = system: johnsongrass (Sorghum halepense, SORHA); assay: as above; settings: 14 days after application
Outline: as §1

[22] = system: common ragweed (Ambrosia artemisiifolia L., AMBEL); assay: as above
Outline: as §1

[23] = system: redroot pigweed (Amaranthus retroflexus, AMARE); assay: as above
Outline: as §1

[24] = system: soybean (Glycine max L., var. Pella 86, SOY); assay: Post-emerge greenhouse screening, crop safety (phytotoxicity rating); settings: 14 days after application
Outline: as §1

[25] = system: upland rice (Oryza sp., var.Tebonnet, RICE); assay: as above; settings: 14 days after application
Outline: as §1

[26] = system: field corn (Zea mays L., var. Dekalb 535, CORN); assay: Post-emerge greenhouse screening, crop safety / corn selectivity (phytotoxicity rating); settings: 14 days after application
Outline: as §1

[27] = 125 g ai/ha, 14 days after application
[28] = 250 g ai/ha, 14 days after application

SMILES: Cn1c(=S)n(C)c(=O)n(-c2cc(Oc3ncccn3)c(Cl)cc2F)c1=O [Compound 2-1, 3-[4-Chloro-2-fluoro-5-(2-pyrimidinyloxy)phenyl]-5,6-dihydro-1,5-dimethyl-6-thioxo-1,3,5-triazine-2,4(1H,3H)-dione]
- CORN crop damage, phytotoxicity rating (0-100 scale) ([1]; 125 g ai/ha): 50
- CORN crop damage, phytotoxicity rating (0-100 scale) ([1]; 250 g ai/ha): 65
- SOY crop damage, phytotoxicity rating (0-100 scale) ([2]; 125 g ai/ha): 90
- SOY crop damage, phytotoxicity rating (0-100 scale) ([2]; 250 g ai/ha): 100
- RICE crop damage, phytotoxicity rating (0-100 scale) ([3]; 125 g ai/ha): 99
- RICE crop damage, phytotoxicity rating (0-100 scale) ([3]; 250 g ai/ha): 99
- IPOHE phytotoxicity rating (0-100 scale) ([4]; 125 g ai/ha): 100
- IPOHE phytotoxicity rating (0-100 scale) ([4]; 250 g ai/ha): 100
- ECHCG phytotoxicity rating (0-100 scale) ([5]; 125 g ai/ha): 100
- ECHCG phytotoxicity rating (0-100 scale) ([5]; 250 g ai/ha): 100
- CHEAL phytotoxicity rating (0-100 scale) ([6]; 125 g ai/ha): 100
- CHEAL phytotoxicity rating (0-100 scale) ([6]; 250 g ai/ha): 100
- ABUTH phytotoxicity rating (0-100 scale) ([7]; 125 g ai/ha): 100
- ABUTH phytotoxicity rating (0-100 scale) ([7]; 250 g ai/ha): 100
- CASOB phytotoxicity rating (0-100 scale) ([8]; 125 g ai/ha): 100
- CASOB phytotoxicity rating (0-100 scale) ([8]; 250 g ai/ha): 100
- SETVI phytotoxicity rating (0-100 scale) ([9]; 125 g ai/ha): 100
- SETVI phytotoxicity rating (0-100 scale) ([9]; 250 g ai/ha): 100
- DIGSA phytotoxicity rating (0-100 scale) ([10]; 125 g ai/ha): 100
- DIGSA phytotoxicity rating (0-100 scale) ([10]; 250 g ai/ha): 100
- SORHA phytotoxicity rating (0-100 scale) ([11]; 125 g ai/ha): 100
- SORHA phytotoxicity rating (0-100 scale) ([11]; 250 g ai/ha): 100
- AMBEL phytotoxicity rating (0-100 scale) ([12]; 125 g ai/ha): 100
- AMBEL phytotoxicity rating (0-100 scale) ([12]; 250 g ai/ha): 100
- AMARE phytotoxicity rating (0-100 scale) ([13]; 125 g ai/ha): 100
- AMARE phytotoxicity rating (0-100 scale) ([13]; 250 g ai/ha): 100
- IPOHE phytotoxicity rating (0-100 scale) ([14]; 125 g ai/ha): 80
- IPOHE phytotoxicity rating (0-100 scale) ([14]; 250 g ai/ha): 99
- ECHCG phytotoxicity rating (0-100 scale) ([15]; 125 g ai/ha): 50
- ECHCG phytotoxicity rating (0-100 scale) ([15]; 250 g ai/ha): 80
- CHEAL phytotoxicity rating (0-100 scale) ([16]; 31.3 g ai/ha): 100
- CHEAL phytotoxicity rating (0-100 scale) ([16]; 62.5 g ai/ha): 100
- CHEAL phytotoxicity rating (0-100 scale) [16, 27]: 100
- CHEAL phytotoxicity rating (0-100 scale) [16, 28]: 100
- ABUTH phytotoxicity rating (0-100 scale) ([17]; 125 g ai/ha): 100
- ABUTH phytotoxicity rating (0-100 scale) ([17]; 250 g ai/ha): 100
- CASOB phytotoxicity rating (0-100 scale) ([18]; 31.3 g ai/ha): 60
- CASOB phytotoxicity rating (0-100 scale) ([18]; 62.5 g ai/ha): 60
- CASOB phytotoxicity rating (0-100 scale) [18, 27]: 65
- CASOB phytotoxicity rating (0-100 scale) [18, 28]: 75
- SETVI phytotoxicity rating (0-100 scale) ([19]; 31.3 g ai/ha): 0
- SETVI phytotoxicity rating (0-100 scale) ([19]; 62.5 g ai/ha): 60
- SETVI phytotoxicity rating (0-100 scale) [19, 27]: 70
- SETVI phytotoxicity rating (0-100 scale) [19, 28]: 80
- DIGSA phytotoxicity rating (0-100 scale) ([20]; 125 g ai/ha): 55
- DIGSA phytotoxicity rating (0-100 scale) ([20]; 250 g ai/ha): 55
- SORHA phytotoxicity rating (0-100 scale) ([21]; 125 g ai/ha): 60
- SORHA phytotoxicity rating (0-100 scale) ([21]; 250 g ai/ha): 70
- AMBEL phytotoxicity rating (0-100 scale) ([22]; 31.3 g ai/ha): 50
- AMBEL phytotoxicity rating (0-100 scale) ([22]; 62.5 g ai/ha): 50
- AMBEL phytotoxicity rating (0-100 scale) [22, 27]: 60
- AMBEL phytotoxicity rating (0-100 scale) [22, 28]: 65
- AMARE phytotoxicity rating (0-100 scale) ([23]; 31.3 g ai/ha): 100
- AMARE phytotoxicity rating (0-100 scale) ([23]; 62.5 g ai/ha): 100
- AMARE phytotoxicity rating (0-100 scale) [23, 27]: 100
- AMARE phytotoxicity rating (0-100 scale) [23, 28]: 100
- SOY crop damage, phytotoxicity rating (0-100 scale) ([24]; 125 g ai/ha): 50
- SOY crop damage, phytotoxicity rating (0-100 scale) ([24]; 250 g ai/ha): 65
- RICE crop damage, phytotoxicity rating (0-100 scale) ([25]; 125 g ai/ha): 15
- RICE crop damage, phytotoxicity rating (0-100 scale) ([25]; 250 g ai/ha): 40
- CORN crop damage, phytotoxicity rating (0-100 scale) ([26]; 125 g ai/ha): 0
- CORN crop damage, phytotoxicity rating (0-100 scale) ([26]; 250 g ai/ha): 5

SMILES: Cn1c(=S)n(C)c(=O)n(-c2cc(Oc3ccccc3)c(Cl)cc2F)c1=O [Compound 2-16]
- CORN crop damage, phytotoxicity rating (0-100 scale) ([1]; 125 g ai/ha): 0
- CORN crop damage, phytotoxicity rating (0-100 scale) ([1]; 250 g ai/ha): 5
- SOY crop damage, phytotoxicity rating (0-100 scale) ([2]; 125 g ai/ha): 0
- SOY crop damage, phytotoxicity rating (0-100 scale) ([2]; 250 g ai/ha): 0
- RICE crop damage, phytotoxicity rating (0-100 scale) ([3]; 125 g ai/ha): 0
- RICE crop damage, phytotoxicity rating (0-100 scale) ([3]; 250 g ai/ha): 0
- IPOHE phytotoxicity rating (0-100 scale) ([4]; 125 g ai/ha): 0
- IPOHE phytotoxicity rating (0-100 scale) ([4]; 250 g ai/ha): 10
- ECHCG phytotoxicity rating (0-100 scale) ([5]; 125 g ai/ha): 35
- ECHCG phytotoxicity rating (0-100 scale) ([5]; 250 g ai/ha): 60
- CHEAL phytotoxicity rating (0-100 scale) ([6]; 125 g ai/ha): 100
- CHEAL phytotoxicity rating (0-100 scale) ([6]; 250 g ai/ha): 100
- ABUTH phytotoxicity rating (0-100 scale) ([7]; 125 g ai/ha): 55
- ABUTH phytotoxicity rating (0-100 scale) ([7]; 250 g ai/ha): 60
- CASOB phytotoxicity rating (0-100 scale) ([8]; 125 g ai/ha): 20
- CASOB phytotoxicity rating (0-100 scale) ([8]; 250 g ai/ha): 35
- SETVI phytotoxicity rating (0-100 scale) ([9]; 125 g ai/ha): 60
- SETVI phytotoxicity rating (0-100 scale) ([9]; 250 g ai/ha): 95
- DIGSA phytotoxicity rating (0-100 scale) ([10]; 125 g ai/ha): 75
- DIGSA phytotoxicity rating (0-100 scale) ([10]; 250 g ai/ha): 80
- SORHA phytotoxicity rating (0-100 scale) ([11]; 125 g ai/ha): 35
- SORHA phytotoxicity rating (0-100 scale) ([11]; 250 g ai/ha): 75
- AMBEL phytotoxicity rating (0-100 scale) ([12]; 125 g ai/ha): 50
- AMBEL phytotoxicity rating (0-100 scale) ([12]; 250 g ai/ha): 55
- AMARE phytotoxicity rating (0-100 scale) ([13]; 125 g ai/ha): 99
- AMARE phytotoxicity rating (0-100 scale) ([13]; 250 g ai/ha): 100
- IPOHE phytotoxicity rating (0-100 scale) ([14]; 125 g ai/ha): 0
- IPOHE phytotoxicity rating (0-100 scale) ([14]; 250 g ai/ha): 0
- ECHCG phytotoxicity rating (0-100 scale) ([15]; 125 g ai/ha): 0
- ECHCG phytotoxicity rating (0-100 scale) ([15]; 250 g ai/ha): 35
- CHEAL phytotoxicity rating (0-100 scale) [16, 27]: 70
- CHEAL phytotoxicity rating (0-100 scale) [16, 28]: 70
- ABUTH phytotoxicity rating (0-100 scale) ([17]; 125 g ai/ha): 0
- ABUTH phytotoxicity rating (0-100 scale) ([17]; 250 g ai/ha): 40
- CASOB phytotoxicity rating (0-100 scale) [18, 27]: 0
- CASOB phytotoxicity rating (0-100 scale) [18, 28]: 0
- SETVI phytotoxicity rating (0-100 scale) [19, 27]: 50
- SETVI phytotoxicity rating (0-100 scale) [19, 28]: 50
- DIGSA phytotoxicity rating (0-100 scale) ([20]; 125 g ai/ha): 0
- DIGSA phytotoxicity rating (0-100 scale) ([20]; 250 g ai/ha): 0
- SORHA phytotoxicity rating (0-100 scale) ([21]; 125 g ai/ha): 0
- SORHA phytotoxicity rating (0-100 scale) ([21]; 250 g ai/ha): 0
- AMBEL phytotoxicity rating (0-100 scale) [22, 27]: 0
- AMBEL phytotoxicity rating (0-100 scale) [22, 28]: 0
- AMARE phytotoxicity rating (0-100 scale) [23, 27]: 80
- AMARE phytotoxicity rating (0-100 scale) [23, 28]: 80
- SOY crop damage, phytotoxicity rating (0-100 scale) ([24]; 125 g ai/ha): 0
- SOY crop damage, phytotoxicity rating (0-100 scale) ([24]; 250 g ai/ha): 0
- RICE crop damage, phytotoxicity rating (0-100 scale) ([25]; 125 g ai/ha): 0
- RICE crop damage, phytotoxicity rating (0-100 scale) ([25]; 250 g ai/ha): 0
- CORN crop damage, phytotoxicity rating (0-100 scale) ([26]; 125 g ai/ha): 0
- CORN crop damage, phytotoxicity rating (0-100 scale) ([26]; 250 g ai/ha): 0
